Test results: patent publication US5445942A, “Amplification assay for hydrolase enzymes” (London Biotechnology Limited, priority 1988, dated 1995)

Experiments:
[1] = system: apoenzyme; test: Prosthetic-group activity of FADP and its interference with holoenzyme formation from apoenzyme and FAD; type: biochemical; details: shelf-stable apoenzymes
Source text: In a preferred embodiment, the prosthetogen is an FAD-phosphate (FADP) and the hydrolase is a phosphatase. This procedure has the great advantage that the prosthetic group, FAD, is formed directly by action of a phosphatase enzyme on the prosthetogen, FADP, without the necessity to add any ancillary converting enzymes.
Suitable apoenzymes include apo-D-aminoacid oxidase and apoglucose oxidase as mentioned above, as well as apo-L-aminoacid oxidase, apoxanthine oxidase and other apoenzymes which will be apparent to those skilled in the art. Apo-D-aminoacid oxidase is a preferred apoenzyme for many applications since it is very shelf-stable, and has kinetic characteristics that permits the technology to be used in a `single pot` format, with all components added as a single promix to analyte-linked alkaline phosphatase. Suitable substrates for it are D-alanine, D-methionine and D-proline. For maximising the sensitivity of the invention without incorporating tail-end cycling components (see below), the use of apoglucose oxidase is advantageous, although its use requires a two stage format in which the first stage, involving hydrolysis of FADP, is operated at pH 8.0 and the second detection stage at a lower pH.

[2] = target: T1, apoglucose oxidase (Aspergillus niger, UniProt P13006); test: Binding of FAD / FADP by apoglucose oxidase (removal of FAD traces from FADP)
T1 construct: made in house
T1 sequence (P13006 17-605): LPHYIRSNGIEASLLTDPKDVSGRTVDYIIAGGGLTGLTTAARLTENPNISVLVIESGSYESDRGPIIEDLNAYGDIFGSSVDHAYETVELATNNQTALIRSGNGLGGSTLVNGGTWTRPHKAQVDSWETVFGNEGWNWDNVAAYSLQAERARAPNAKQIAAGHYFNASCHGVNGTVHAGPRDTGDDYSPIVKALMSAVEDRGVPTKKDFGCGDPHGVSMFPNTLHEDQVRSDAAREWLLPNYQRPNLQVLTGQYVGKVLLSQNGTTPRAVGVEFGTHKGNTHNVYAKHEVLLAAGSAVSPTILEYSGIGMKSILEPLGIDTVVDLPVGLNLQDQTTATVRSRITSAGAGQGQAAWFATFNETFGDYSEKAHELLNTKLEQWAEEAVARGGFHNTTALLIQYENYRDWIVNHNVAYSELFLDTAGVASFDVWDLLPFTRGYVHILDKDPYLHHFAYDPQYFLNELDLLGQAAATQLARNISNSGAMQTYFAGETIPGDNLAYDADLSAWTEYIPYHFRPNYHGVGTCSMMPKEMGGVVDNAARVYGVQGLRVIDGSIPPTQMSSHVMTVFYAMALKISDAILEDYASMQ
Protocol: Apoglucose oxidase (2.5 μM) was mixed with FADP (200 μM) at room temperature. After 30 min the mixture was ultrafiltered to yield a sample of FADP containing less than 0.002% FAD.

[3] = system: alkaline phosphatase; test: Hydrolysis of FADP by alkaline phosphatase, product checked by anion exchange elution and apoglucose oxidase reconstitution; type: biochemical; details: 10 mM Tris buffer pH 8.0, 1 mM MgCl2, 0.1 mM ZnCl2
Source text: Crude 2'(3')-FADP was isolated by FPLC on a Mono Q HR 10/10 anion exchange column (Pharmacia) with a H2 O/1M ammonium formate (pH 6.5) gradient. The fractions eluting with 0.65-0.8M ammonium formate were pooled and freeze-dried. […] Traces of FAD could be removed by treatment with a suitable apoenzyme followed by ultrafiltration to remove the macromolecules.

[4] = target: D-amino acid oxidase (Sus scrofa, UniProt P00371); details: same concentration as D-alanine (35 mM), pH 8.0
Chain of D-amino acid oxidase (P00371 whole entry): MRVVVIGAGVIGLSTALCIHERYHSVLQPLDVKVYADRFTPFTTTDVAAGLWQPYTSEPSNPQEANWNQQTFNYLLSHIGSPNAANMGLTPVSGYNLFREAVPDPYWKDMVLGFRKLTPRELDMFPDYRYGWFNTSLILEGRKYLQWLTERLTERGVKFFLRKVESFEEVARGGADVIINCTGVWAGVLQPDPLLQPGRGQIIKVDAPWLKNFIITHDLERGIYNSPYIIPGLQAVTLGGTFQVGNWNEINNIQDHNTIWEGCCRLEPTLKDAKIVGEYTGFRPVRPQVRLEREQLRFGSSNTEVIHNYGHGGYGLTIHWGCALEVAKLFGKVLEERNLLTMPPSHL
Source text: Use of apo-D-amino acid oxidase, whose holoenzyme has a pH optimum of 8.0-9.0, allows the above assay to be conducted in a single pot:
The above ingredients may be mixed beforehand and added directly too the alkaline phosphatase.

Row | Molecule | activity per se as a prosthetic group [1] | interference with formation of the holoenzyme from apoenzyme and FAD [1] | binding by apoglucose oxidase [2] | hydrolysis by alkaline phosphatase [3] | rate of oxidation relative to D-alanine [4]
1 | FAD-2' (3')-Phosphate [FADP] | no significant activity per se as a prosthetic group | does not significantly interfere with the formation of the holoenzyme | does not bind FADP | acted upon by alkaline phosphatase to give a product that eluted in the same place as FAD and was able to reconstitute apoglucose oxidase | –
2 | Cc1cc2nc3c(=O)[nH]c(=O)nc-3n(C[C@H](O)[C@H](O)[C@H](O)COP(=O)(O)OP(=O)(O)OC[C@H]3O[C@@H](n4cnc5c(N)ncnc54)[C@H](O)[C@@H]3O)c2cc1C [FAD, flavin adenine dinucleotide, reference compound] | – | – | binds FAD tightly | – | –
3 | O=C(O)[C@H]1CCCN1 [D-proline] | – | – | – | – | 3.0
4 | CSCC[C@@H](N)C(=O)O [D-methionine] | – | – | – | – | 2.5
